Results as given in patent publication US11427549B2, “Pyrimidinyloxy benzo-fused compounds as herbicides” (FMC Corporation, priority 2017, dated 2022).

Tests used:
[1] = system: barnyardgrass (Echinochloa crus-galli); experiment: Test A preemergence, barnyardgrass; assay type: in vivo; conditions: Echinochloa crus-galli, pre-emergence, 240 h, 0 to 100 scale (0 no effect, 100 complete control), read-out: Plant response rating, Barnyardgrass; for pest or weed control at 31 g/ha: 31 g ai/ha; for pest or weed control at 125 g/ha: 125 g ai/ha
[2] = system: kochia (Kochia scoparia); experiment: Test A preemergence, kochia; assay type: in vivo; conditions: Bassia scoparia, pre-emergence, 240 h, 0 to 100 scale (0 no effect, 100 complete control), read-out: Plant response rating, Kochia; for pest or weed control at 31 g/ha: 31 g ai/ha; for pest or weed control at 125 g/ha: 125 g ai/ha
[3] = system: ragweed (common ragweed, Ambrosia elatior); experiment: Test A preemergence, ragweed; assay type: in vivo; conditions: Ambrosia artemisiifolia, pre-emergence, 240 h, 0 to 100 scale (0 no effect, 100 complete control), read-out: Plant response rating, Ragweed; for pest or weed control at 31 g/ha: 31 g ai/ha; for pest or weed control at 125 g/ha: 125 g ai/ha
[4] = system: ryegrass, Italian (Italian ryegrass, Lolium multiflorum); experiment: Test A preemergence, ryegrass, Italian; assay type: in vivo; conditions: Lolium multiflorum, pre-emergence, 240 h, 0 to 100 scale (0 no effect, 100 complete control), read-out: Plant response rating, Ryegrass, Italian; for pest or weed control at 31 g/ha: 31 g ai/ha; for pest or weed control at 125 g/ha: 125 g ai/ha
[5] = system: pigweed (Amaranthus retroflexus); experiment: Test A preemergence, pigweed; assay type: in vivo; conditions: Amaranthus retroflexus, pre-emergence, 240 h, 0 to 100 scale (0 no effect, 100 complete control), read-out: Plant response rating, Pigweed; for pest or weed control at 31 g/ha: 31 g ai/ha; for pest or weed control at 125 g/ha: 125 g ai/ha
[6] = system: barnyardgrass (Echinochloa crus-galli); experiment: Test A postemergence, barnyardgrass; assay type: in vivo; conditions: Echinochloa crus-galli, post-emergence, 240 h, 0 to 100 scale (0 no effect, 100 complete control), read-out: Plant response rating, Barnyardgrass; for pest or weed control at 31 g/ha: 31 g ai/ha; for pest or weed control at 125 g/ha: 125 g ai/ha
[7] = system: kochia (Kochia scoparia); experiment: Test A postemergence, kochia; assay type: in vivo; conditions: Bassia scoparia, post-emergence, 240 h, 0 to 100 scale (0 no effect, 100 complete control), read-out: Plant response rating, Kochia; for pest or weed control at 31 g/ha: 31 g ai/ha; for pest or weed control at 125 g/ha: 125 g ai/ha
[8] = system: ragweed (common ragweed, Ambrosia elatior); experiment: Test A postemergence, ragweed; assay type: in vivo; conditions: Ambrosia artemisiifolia, post-emergence, 240 h, 0 to 100 scale (0 no effect, 100 complete control), read-out: Plant response rating, Ragweed; for pest or weed control at 31 g/ha: 31 g ai/ha; for pest or weed control at 125 g/ha: 125 g ai/ha
[9] = system: ryegrass, Italian (Italian ryegrass, Lolium multiflorum); experiment: Test A postemergence, ryegrass, Italian; assay type: in vivo; conditions: Lolium multiflorum, post-emergence, 240 h, 0 to 100 scale (0 no effect, 100 complete control), read-out: Plant response rating, Ryegrass, Italian; for pest or weed control at 31 g/ha: 31 g ai/ha; for pest or weed control at 125 g/ha: 125 g ai/ha
[10] = system: pigweed (Amaranthus retroflexus); experiment: Test A postemergence, pigweed; assay type: in vivo; conditions: Amaranthus retroflexus, post-emergence, 240 h, 0 to 100 scale (0 no effect, 100 complete control), read-out: Plant response rating, Pigweed; for pest or weed control at 31 g/ha: 31 g ai/ha; for pest or weed control at 125 g/ha: 125 g ai/ha
[11] = system: wheat (Triticum aestivum); experiment: Test A postemergence, wheat; assay type: in vivo; conditions: Triticum aestivum, post-emergence, 240 h, 0 to 100 scale (0 no effect, 100 complete control), read-out: Plant response rating, Wheat; for plant injury at 31 g/ha: 31 g ai/ha; for plant injury at 125 g/ha: 125 g ai/ha
[12] = system: corn (Zea mays); experiment: Test A postemergence, corn; assay type: in vivo; conditions: Zea mays, post-emergence, 240 h, 0 to 100 scale (0 no effect, 100 complete control); for Corn plant response rating (crop injury, 0 = no effect, 100 = complete kill) at 31 g/ha: 31 g ai/ha; for Corn plant response rating (crop injury, 0 = no effect, 100 = complete kill) at 125 g/ha: 125 g ai/ha
[13] = system: blackgrass (Alopecurus myosuroides); experiment: Test A postemergence, blackgrass; assay type: in vivo; conditions: Alopecurus myosuroides, post-emergence, 240 h, 0 to 100 scale (0 no effect, 100 complete control), read-out: Plant response rating, Blackgrass; for pest or weed control at 31 g/ha: 31 g ai/ha; for pest or weed control at 125 g/ha: 125 g ai/ha
[14] = system: galium (catchweed bedstraw, Galium aparine); experiment: Test A postemergence, galium; assay type: in vivo; conditions: Galium, post-emergence, 240 h, 0 to 100 scale (0 no effect, 100 complete control), read-out: Plant response rating, Galium; for pest or weed control at 31 g/ha: 31 g ai/ha; for pest or weed control at 125 g/ha: 125 g ai/ha
[15] = system: rice (Oryza sativa); experiment: Test B flooded paddy test, rice; conditions: Oryza sativa, read-out: Plant response rating, Rice (0 to 100 scale, 0 is no effect, 100 is complete control)
[16] = system: ducksalad (Heteranthera limosa); experiment: Test B flooded paddy test, ducksalad; conditions: Heteranthera limosa, read-out: Plant response rating, Ducksalad (0 to 100 scale, 0 is no effect, 100 is complete control)
[17] = system: barnyardgrass (Echinochloa crus-galli); experiment: Test B flooded paddy test, barnyardgrass; conditions: Echinochloa crus-galli, read-out: Plant response rating, Barnyardgrass (0 to 100 scale, 0 is no effect, 100 is complete control)

SMILES	pest or weed control at 31 g/ha [1] [%]	pest or weed control at 125 g/ha [1] [%]	pest or weed control at 31 g/ha [2] [%]	pest or weed control at 125 g/ha [2] [%]	pest or weed control at 31 g/ha [3] [%]	pest or weed control at 125 g/ha [3] [%]	pest or weed control at 31 g/ha [4] [%]	pest or weed control at 125 g/ha [4] [%]	pest or weed control at 31 g/ha [5] [%]	pest or weed control at 125 g/ha [5] [%]	pest or weed control at 31 g/ha [6] [%]	pest or weed control at 125 g/ha [6] [%]	pest or weed control at 31 g/ha [7] [%]	pest or weed control at 125 g/ha [7] [%]	pest or weed control at 31 g/ha [8] [%]	pest or weed control at 125 g/ha [8] [%]	pest or weed control at 31 g/ha [9] [%]	pest or weed control at 125 g/ha [9] [%]	pest or weed control at 31 g/ha [10] [%]	pest or weed control at 125 g/ha [10] [%]	further results
O=C1O[C@@H](CCC(F)(F)F)c2c(Oc3ncc(Cl)cn3)cccc21 [Compound 18, (3S)-4-[(5-Chloro-2-pyrimidinyl)oxy]-3-(3,3,3-trifluoropropyl)-1(3H)-isobenzofuranone]	0	0	0	0	0	0	0	0	0	0	0	0	0	10	0	0	0	0	10	20	plant injury at 31 g/ha [11]: 0%; plant injury at 125 g/ha [11]: 0%; Corn plant response rating (crop injury, 0 = no effect, 100 = complete kill) at 31 g/ha [12]: 0%; Corn plant response rating (crop injury, 0 = no effect, 100 = complete kill) at 125 g/ha [12]: 10%; pest or weed control at 31 g/ha [13]: 0%; pest or weed control at 125 g/ha [13]: 0%; pest or weed control at 31 g/ha [14]: 0%; pest or weed control at 125 g/ha [14]: 10%; plant injury at 250 g/ha [15]: 0%; pest or weed control at 250 g/ha [16]: 0%; pest or weed control at 250 g/ha [17]: 0%
O=C1Cc2cccc(Oc3ncc(Cl)cn3)c2C(CCCC(F)(F)F)O1 (stereo not shown) [Compound 17, 8-[(5-Chloro-2-pyrimidinyl)oxy]-1,4-dihydro-1-(4,4,4-trifluorobutyl)-3H-2-benzopyran-3-one]	10	50	0	60	0	0	0	10	60	100	10	70	30	70	10	10	0	10	50	70	plant injury at 31 g/ha [11]: 0%; plant injury at 125 g/ha [11]: 10%; Corn plant response rating (crop injury, 0 = no effect, 100 = complete kill) at 31 g/ha [12]: 20%; Corn plant response rating (crop injury, 0 = no effect, 100 = complete kill) at 125 g/ha [12]: 20%; pest or weed control at 31 g/ha [13]: 20%; pest or weed control at 125 g/ha [13]: 50%; pest or weed control at 31 g/ha [14]: 40%; pest or weed control at 125 g/ha [14]: 90%; plant injury at 250 g/ha [15]: 0%; pest or weed control at 250 g/ha [16]: 0%; pest or weed control at 250 g/ha [17]: 0%
O=C1OC(CCCCC(F)(F)F)Cc2c(Oc3ncc(Cl)cn3)cccc21 (stereo not shown) [Compound 31, 5-[(5-Chloro-2-pyrimidinyl)oxy]-3,4-dihydro-3-(5,5,5-trifluoropentyl)-1H-2-benzopyran-1-one]	0	0	0	0	0	0	0	0	0	0	20	0	10	40	0	0	0	0	40	50	plant injury at 31 g/ha [11]: 0%; plant injury at 125 g/ha [11]: 0%; Corn plant response rating (crop injury, 0 = no effect, 100 = complete kill) at 31 g/ha [12]: 0%; Corn plant response rating (crop injury, 0 = no effect, 100 = complete kill) at 125 g/ha [12]: 10%; pest or weed control at 31 g/ha [13]: 0%; pest or weed control at 125 g/ha [13]: 0%; pest or weed control at 31 g/ha [14]: 0%; pest or weed control at 125 g/ha [14]: 30%; plant injury at 250 g/ha [15]: 0%; pest or weed control at 250 g/ha [16]: 0%; pest or weed control at 250 g/ha [17]: 0%
O=C1CCC(CCCC(F)(F)F)c2c(Oc3ncc(Cl)cn3)cccc21 (stereo not shown) [Compound 30, 5-[(5-Chloro-2-pyrimidinyl)oxy]-3,4-dihydro-4-(4,4,4-trifluorobutyl)-1(2H)-naphthalenone]	0	40	0	0	0	0	0	10	10	60	20	30	10	30	10	10	30	30	70	90	plant injury at 31 g/ha [11]: 0%; plant injury at 125 g/ha [11]: 20%; Corn plant response rating (crop injury, 0 = no effect, 100 = complete kill) at 31 g/ha [12]: 30%; Corn plant response rating (crop injury, 0 = no effect, 100 = complete kill) at 125 g/ha [12]: 30%; pest or weed control at 31 g/ha [13]: 20%; pest or weed control at 125 g/ha [13]: 60%; pest or weed control at 31 g/ha [14]: 30%; pest or weed control at 125 g/ha [14]: 80%; plant injury at 250 g/ha [15]: 0%; pest or weed control at 250 g/ha [16]: 85%; pest or weed control at 250 g/ha [17]: 20%
